Assay results published in ChEMBL document CHEMBL1201861, “Genomics of Drug Sensitity in Cancer screening data, Wellcome Trust Sanger Institute”.

Each compound was assayed on COLO-800 (assay: cells). Details: Homo sapiens, COLO-800.
Type: functional, cell-based, Homo sapiens
Description: SANGER: Inhibition of human COLO-800 cell growth in a cell viability assay.

SMILES	IC50
Cc1ccc(C(=O)Nc2ccc(CN3CCN(C)CC3)c(C(F)(F)F)c2)cc1C#Cc1cnc2cccnn12 [PONATINIB]	> 512 nM

Each compound was assayed on COLO-829 (assay: cells). Details: Homo sapiens, COLO-829.
Type: functional, cell-based, Homo sapiens
Description: SANGER: Inhibition of human COLO-829 cell growth in a cell viability assay.

SMILES	IC50
Cc1ccc(C(=O)Nc2ccc(CN3CCN(C)CC3)c(C(F)(F)F)c2)cc1C#Cc1cnc2cccnn12 [PONATINIB]	> 512 nM

What follows are compounds tested on CTV-1 (assay: cells). Details: Homo sapiens, CTV-1.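 Note: growth inhibition of the cell line, read out with a cell viability assay.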
Type: functional, cell-based, Homo sapiens
Description: SANGER: Inhibition of human CTV-1 cell growth in a cell viability assay.

SMILES	IC50
Cc1ccc(C(=O)Nc2ccc(CN3CCN(C)CC3)c(C(F)(F)F)c2)cc1C#Cc1cnc2cccnn12 [PONATINIB]	5.21 nM

What follows are compounds tested on CW-2 (assay: cells). Details: Homo sapiens, CW-2.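 Note: growth inhibition of CW-2 cells, read out by a cell viability assay.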
Type: functional, cell-based, Homo sapiens
Description: SANGER: Inhibition of human CW-2 cell growth in a cell viability assay.

SMILES	IC50
Cc1ccc(C(=O)Nc2ccc(CN3CCN(C)CC3)c(C(F)(F)F)c2)cc1C#Cc1cnc2cccnn12 [PONATINIB]	> 512 nM

Each compound was assayed on D283 Med (assay: cells). Details: Homo sapiens, D283 Med.
Type: functional, cell-based, Homo sapiens
Description: SANGER: Inhibition of human D-283MED cell growth in a cell viability assay.

SMILES	IC50
Cc1ccc(C(=O)Nc2ccc(CN3CCN(C)CC3)c(C(F)(F)F)c2)cc1C#Cc1cnc2cccnn12 [PONATINIB]	> 512 nM

What follows are compounds tested on EKVX (assay: cells). Details: Homo sapiens, EKVX.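 Note: growth inhibition of human EKVX cells, read out with a cell viability assay.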
Type: functional, cell-based, Homo sapiens
Description: SANGER: Inhibition of human EKVX cell growth in a cell viability assay.

SMILES	IC50
Cc1ccc(C(=O)Nc2ccc(CN3CCN(C)CC3)c(C(F)(F)F)c2)cc1C#Cc1cnc2cccnn12 [PONATINIB]	> 512 nM

Each compound was assayed on ES7 (assay: cells). Details: Homo sapiens, ES7.
Type: functional, cell-based, Homo sapiens
Description: SANGER: Inhibition of human ES7 cell growth in a cell viability assay.

SMILES	IC50
Cc1ccc(C(=O)Nc2ccc(CN3CCN(C)CC3)c(C(F)(F)F)c2)cc1C#Cc1cnc2cccnn12 [PONATINIB]	> 512 nM

These compounds were tested on ETK-1 (assay: cells). Details: Homo sapiens, ETK-1.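 Note: growth inhibition of human ETK-1 cells, read out with a cell viability assay.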
Type: functional, cell-based, Homo sapiens
Description: SANGER: Inhibition of human ETK-1 cell growth in a cell viability assay.

SMILES	IC50
Cc1ccc(C(=O)Nc2ccc(CN3CCN(C)CC3)c(C(F)(F)F)c2)cc1C#Cc1cnc2cccnn12 [PONATINIB]	> 512 nM

Each compound was assayed on EW-18 (assay: cells). Details: Homo sapiens, EW-18; read-out: IC50.
Type: functional, cell-based, Homo sapiens
Description: SANGER: Inhibition of human EW-18 cell growth in a cell viability assay.

SMILES	IC50
Cc1ccc(C(=O)Nc2ccc(CN3CCN(C)CC3)c(C(F)(F)F)c2)cc1C#Cc1cnc2cccnn12 [PONATINIB]	> 512 nM

These compounds were tested on EOL1 (assay: cells). Details: Homo sapiens, EOL1.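 Note: growth inhibition of EoL-1 cells, read out by a cell viability assay.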
Type: functional, cell-based, Homo sapiens
Description: SANGER: Inhibition of human EoL-1-cell cell growth in a cell viability assay.

SMILES	IC50
Cc1ccc(C(=O)Nc2ccc(CN3CCN(C)CC3)c(C(F)(F)F)c2)cc1C#Cc1cnc2cccnn12 [PONATINIB]	< 2 nM

What follows are compounds tested on GCIY (assay: cells). Details: Homo sapiens, GCIY.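 Note: growth inhibition of the human GCIY cell line, read out by a cell viability assay.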
Type: functional, cell-based, Homo sapiens
Description: SANGER: Inhibition of human GCIY cell growth in a cell viability assay.

SMILES	IC50
Cc1ccc(C(=O)Nc2ccc(CN3CCN(C)CC3)c(C(F)(F)F)c2)cc1C#Cc1cnc2cccnn12 [PONATINIB]	> 512 nM

Each compound was assayed on HAL-01 (assay: cells). Details: Homo sapiens, HAL-01.
Type: functional, cell-based, Homo sapiens
Description: SANGER: Inhibition of human HAL-01 cell growth in a cell viability assay.

SMILES	IC50
Cc1ccc(C(=O)Nc2ccc(CN3CCN(C)CC3)c(C(F)(F)F)c2)cc1C#Cc1cnc2cccnn12 [PONATINIB]	> 512 nM

The compounds below were run on HCC1187 (assay: cells). Details: Homo sapiens, HCC1187.
Type: functional, cell-based, Homo sapiens
Description: SANGER: Inhibition of human HCC1187 cell growth in a cell viability assay.

SMILES	IC50
Cc1ccc(C(=O)Nc2ccc(CN3CCN(C)CC3)c(C(F)(F)F)c2)cc1C#Cc1cnc2cccnn12 [PONATINIB]	> 512 nM

Each compound was assayed on HCC2218 (assay: cells). Details: Homo sapiens, HCC2218.
Type: functional, cell-based, Homo sapiens
Description: SANGER: Inhibition of human HCC2218 cell growth in a cell viability assay.

SMILES	IC50
Cc1ccc(C(=O)Nc2ccc(CN3CCN(C)CC3)c(C(F)(F)F)c2)cc1C#Cc1cnc2cccnn12 [PONATINIB]	> 512 nM

What follows are compounds tested on HEL (assay: cells). Details: Homo sapiens, HEL.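 Note: growth inhibition of HEL cells, read out with a cell viability assay.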
Type: functional, cell-based, Homo sapiens
Description: SANGER: Inhibition of human HEL cell growth in a cell viability assay.

SMILES	IC50
Cc1ccc(C(=O)Nc2ccc(CN3CCN(C)CC3)c(C(F)(F)F)c2)cc1C#Cc1cnc2cccnn12 [PONATINIB]	> 512 nM

Each compound was assayed on K562 (assay: cells). Details: Homo sapiens, K562.
Type: functional, cell-based, Homo sapiens
Description: SANGER: Inhibition of human K-562 cell growth in a cell viability assay.

SMILES	IC50
Cc1ccc(C(=O)Nc2ccc(CN3CCN(C)CC3)c(C(F)(F)F)c2)cc1C#Cc1cnc2cccnn12 [PONATINIB]	> 512 nM

These compounds were tested on KINGS-1 (assay: cells). Details: Homo sapiens, KINGS-1.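 Note: cell viability assay measuring suppression of KINGS-1 cell growth.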
Type: functional, cell-based, Homo sapiens
Description: SANGER: Inhibition of human KINGS-1 cell growth in a cell viability assay.

SMILES	IC50
Cc1ccc(C(=O)Nc2ccc(CN3CCN(C)CC3)c(C(F)(F)F)c2)cc1C#Cc1cnc2cccnn12 [PONATINIB]	> 512 nM

Each compound was assayed on KNS-42 (assay: cells). Details: Homo sapiens.
Type: functional, cell-based
Description: SANGER: Inhibition of human KNS-42 cell growth in a cell viability assay.

SMILES	IC50
Cc1ccc(C(=O)Nc2ccc(CN3CCN(C)CC3)c(C(F)(F)F)c2)cc1C#Cc1cnc2cccnn12 [PONATINIB]	> 512 nM

Each compound was assayed on LB1047-RCC (assay: cells). Details: Homo sapiens, LB1047-RCC.
Type: functional, cell-based, Homo sapiens
Description: SANGER: Inhibition of human LB1047-RCC cell growth in a cell viability assay.

SMILES	IC50
Cc1ccc(C(=O)Nc2ccc(CN3CCN(C)CC3)c(C(F)(F)F)c2)cc1C#Cc1cnc2cccnn12 [PONATINIB]	> 512 nM

What follows are compounds tested on LNCaP-Clone-FGC (assay: cells). Details: Homo sapiens, LNCaP-Clone-FGC.
Type: functional, cell-based, Homo sapiens
Description: SANGER: Inhibition of human LNCaP-Clone-FGC cell growth in a cell viability assay.

SMILES	IC50
Cc1ccc(C(=O)Nc2ccc(CN3CCN(C)CC3)c(C(F)(F)F)c2)cc1C#Cc1cnc2cccnn12 [PONATINIB]	> 512 nM

The compounds below were run on LU-139 (assay: cells). Details: Homo sapiens, LU-139.
Type: functional, cell-based, Homo sapiens
Description: SANGER: Inhibition of human LU-139 cell growth in a cell viability assay.

SMILES	IC50
Cc1ccc(C(=O)Nc2ccc(CN3CCN(C)CC3)c(C(F)(F)F)c2)cc1C#Cc1cnc2cccnn12 [PONATINIB]	> 512 nM

Each compound was assayed on MFM-223 (assay: cells). Details: Homo sapiens, MFM-223.
Type: functional, cell-based, Homo sapiens
Description: SANGER: Inhibition of human MFM-223 cell growth in a cell viability assay.

SMILES	IC50
Cc1ccc(C(=O)Nc2ccc(CN3CCN(C)CC3)c(C(F)(F)F)c2)cc1C#Cc1cnc2cccnn12 [PONATINIB]	> 512 nM

Each compound was assayed on MSTO-211H (assay: cells). Details: Homo sapiens, MSTO-211H.
Type: functional, cell-based, Homo sapiens
Description: SANGER: Inhibition of human MSTO-211H cell growth in a cell viability assay.

SMILES	IC50
Cc1ccc(C(=O)Nc2ccc(CN3CCN(C)CC3)c(C(F)(F)F)c2)cc1C#Cc1cnc2cccnn12 [PONATINIB]	> 512 nM

These compounds were tested on NB10 (assay: cells). Details: Homo sapiens, NB10.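 Note: growth inhibition of NB10 cells, read out by a cell viability assay.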
Type: functional, cell-based, Homo sapiens
Description: SANGER: Inhibition of human NB10 cell growth in a cell viability assay.

SMILES	IC50
Cc1ccc(C(=O)Nc2ccc(CN3CCN(C)CC3)c(C(F)(F)F)c2)cc1C#Cc1cnc2cccnn12 [PONATINIB]	> 512 nM

These compounds were tested on NCI-H1355 (assay: cells). Details: Homo sapiens, NCI-H1355.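 Note: growth inhibition of human NCI-H1355 cells, read out by a cell viability assay.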
Type: functional, cell-based, Homo sapiens
Description: SANGER: Inhibition of human NCI-H1355 cell growth in a cell viability assay.

SMILES	IC50
Cc1ccc(C(=O)Nc2ccc(CN3CCN(C)CC3)c(C(F)(F)F)c2)cc1C#Cc1cnc2cccnn12 [PONATINIB]	> 512 nM

These compounds were tested on NCI-H1838 (assay: cells). Details: Homo sapiens, NCI-H1838.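 Note: growth inhibition of NCI-H1838 cells, determined with a cell viability readout.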
Type: functional, cell-based, Homo sapiens
Description: SANGER: Inhibition of human NCI-H1838 cell growth in a cell viability assay.

SMILES	IC50
Cc1ccc(C(=O)Nc2ccc(CN3CCN(C)CC3)c(C(F)(F)F)c2)cc1C#Cc1cnc2cccnn12 [PONATINIB]	> 512 nM

The compounds below were run on NCI-H69 (assay: cells). Details: Homo sapiens, NCI-H69.
Type: functional, cell-based, Homo sapiens
Description: SANGER: Inhibition of human NCI-H69 cell growth in a cell viability assay.

SMILES	IC50
Cc1ccc(C(=O)Nc2ccc(CN3CCN(C)CC3)c(C(F)(F)F)c2)cc1C#Cc1cnc2cccnn12 [PONATINIB]	> 512 nM

Each compound was assayed on NEC8 (assay: cells). Details: Homo sapiens, NEC8.
Type: functional, cell-based, Homo sapiens
Description: SANGER: Inhibition of human NEC8 cell growth in a cell viability assay.

SMILES	IC50
Cc1ccc(C(=O)Nc2ccc(CN3CCN(C)CC3)c(C(F)(F)F)c2)cc1C#Cc1cnc2cccnn12 [PONATINIB]	> 512 nM

These compounds were tested on NOMO-1 (assay: cells). Details: Homo sapiens, NOMO-1.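 Note: growth inhibition of human NOMO-1 cells measured by a cell viability assay.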
Type: functional, cell-based, Homo sapiens
Description: SANGER: Inhibition of human NOMO-1 cell growth in a cell viability assay.

SMILES	IC50
Cc1ccc(C(=O)Nc2ccc(CN3CCN(C)CC3)c(C(F)(F)F)c2)cc1C#Cc1cnc2cccnn12 [PONATINIB]	> 512 nM

Each compound was assayed on P30-OHK (assay: cells). Details: Homo sapiens, P30-OHK.
Type: functional, cell-based, Homo sapiens
Description: SANGER: Inhibition of human P30-OHK cell growth in a cell viability assay.

SMILES	IC50
Cc1ccc(C(=O)Nc2ccc(CN3CCN(C)CC3)c(C(F)(F)F)c2)cc1C#Cc1cnc2cccnn12 [PONATINIB]	157 nM

Each compound was assayed on QIMR-WIL (assay: cells). Details: Homo sapiens, QIMR-WIL.
Type: functional, cell-based, Homo sapiens
Description: SANGER: Inhibition of human QIMR-WIL cell growth in a cell viability assay.

SMILES	IC50
Cc1ccc(C(=O)Nc2ccc(CN3CCN(C)CC3)c(C(F)(F)F)c2)cc1C#Cc1cnc2cccnn12 [PONATINIB]	334 nM

The compounds below were run on RH-1 (assay: cells). Details: Homo sapiens, RH-1.
Type: functional, cell-based, Homo sapiens
Description: SANGER: Inhibition of human RH-1 cell growth in a cell viability assay.

SMILES	IC50
Cc1ccc(C(=O)Nc2ccc(CN3CCN(C)CC3)c(C(F)(F)F)c2)cc1C#Cc1cnc2cccnn12 [PONATINIB]	> 512 nM

What follows are compounds tested on RPMI-8226 (assay: cells). Details: Homo sapiens, RPMI-8226.
Type: functional, cell-based, Homo sapiens
Description: SANGER: Inhibition of human RPMI-8226 cell growth in a cell viability assay.

SMILES	IC50
Cc1ccc(C(=O)Nc2ccc(CN3CCN(C)CC3)c(C(F)(F)F)c2)cc1C#Cc1cnc2cccnn12 [PONATINIB]	> 512 nM

The compounds below were run on SCH (assay: cells). Details: Homo sapiens, SCH.
Type: functional, cell-based, Homo sapiens
Description: SANGER: Inhibition of human SCH cell growth in a cell viability assay.

SMILES	IC50
Cc1ccc(C(=O)Nc2ccc(CN3CCN(C)CC3)c(C(F)(F)F)c2)cc1C#Cc1cnc2cccnn12 [PONATINIB]	> 512 nM

These compounds were tested on SF-268 (assay: cells). Details: Homo sapiens, SF-268.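 Note: growth inhibition of SF-268 cells determined with a cell viability assay.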
Type: functional, cell-based, Homo sapiens
Description: SANGER: Inhibition of human SF268 cell growth in a cell viability assay.

SMILES	IC50
Cc1ccc(C(=O)Nc2ccc(CN3CCN(C)CC3)c(C(F)(F)F)c2)cc1C#Cc1cnc2cccnn12 [PONATINIB]	449 nM

Each compound was assayed on SK-N-DZ (assay: cells). Details: Homo sapiens, SK-N-DZ; read-out: IC50.
Type: functional, cell-based, Homo sapiens
Description: SANGER: Inhibition of human SK-N-DZ cell growth in a cell viability assay.

SMILES	IC50
Cc1ccc(C(=O)Nc2ccc(CN3CCN(C)CC3)c(C(F)(F)F)c2)cc1C#Cc1cnc2cccnn12 [PONATINIB]	> 512 nM

The compounds below were run on SK-NEP-1 (assay: cells). Details: Homo sapiens, SK-NEP-1.
Type: functional, cell-based, Homo sapiens
Description: SANGER: Inhibition of human SK-NEP-1 cell growth in a cell viability assay.

SMILES	IC50
Cc1ccc(C(=O)Nc2ccc(CN3CCN(C)CC3)c(C(F)(F)F)c2)cc1C#Cc1cnc2cccnn12 [PONATINIB]	> 512 nM

What follows are compounds tested on SW872 (assay: cells). Details: Homo sapiens, SW872.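 Note: growth inhibition of SW872 cells, read out by a viability assay.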
Type: functional, cell-based, Homo sapiens
Description: SANGER: Inhibition of human SW872 cell growth in a cell viability assay.

SMILES	IC50
Cc1ccc(C(=O)Nc2ccc(CN3CCN(C)CC3)c(C(F)(F)F)c2)cc1C#Cc1cnc2cccnn12 [PONATINIB]	> 512 nM

These compounds were tested on A101D (assay: cells). Details: Homo sapiens, A101D.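 Note: growth inhibition of the cell line, measured with a viability assay.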
Type: functional, cell-based, Homo sapiens
Description: SANGER: Inhibition of human A101D cell growth in a cell viability assay.

SMILES	IC50
Cc1ccc(C(=O)Nc2ccc(CN3CCN(C)CC3)c(C(F)(F)F)c2)cc1C#Cc1cnc2cccnn12 [PONATINIB]	> 512 nM

Each compound was assayed on A4-Fuk (assay: cells). Details: Homo sapiens, A4-Fuk.
Type: functional, cell-based, Homo sapiens
Description: SANGER: Inhibition of human A4-Fuk cell growth in a cell viability assay.

SMILES	IC50
Cc1ccc(C(=O)Nc2ccc(CN3CCN(C)CC3)c(C(F)(F)F)c2)cc1C#Cc1cnc2cccnn12 [PONATINIB]	> 512 nM

What follows are compounds tested on ATN-1 (assay: cells). Details: Homo sapiens, ATN-1.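 Note: growth inhibition of human ATN-1 cells, read out with a cell viability assay.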
Type: functional, cell-based, Homo sapiens
Description: SANGER: Inhibition of human ATN-1 cell growth in a cell viability assay.

SMILES	IC50
Cc1ccc(C(=O)Nc2ccc(CN3CCN(C)CC3)c(C(F)(F)F)c2)cc1C#Cc1cnc2cccnn12 [PONATINIB]	> 512 nM

Each compound was assayed on BV-173 (assay: cells). Details: Homo sapiens, BV-173.
Type: functional, cell-based, Homo sapiens
Description: SANGER: Inhibition of human BV-173 cell growth in a cell viability assay.

SMILES	IC50
Cc1ccc(C(=O)Nc2ccc(CN3CCN(C)CC3)c(C(F)(F)F)c2)cc1C#Cc1cnc2cccnn12 [PONATINIB]	> 512 nM

The compounds below were run on TE-12 (assay: cells). Details: Homo sapiens, TE-12.
Type: functional, cell-based, Homo sapiens
Description: SANGER: Inhibition of human TE-12 cell growth in a cell viability assay.

SMILES	IC50
Cc1ccc(C(=O)Nc2ccc(CN3CCN(C)CC3)c(C(F)(F)F)c2)cc1C#Cc1cnc2cccnn12 [PONATINIB]	> 512 nM

What follows are compounds tested on TE-8 (assay: cells). Details: Homo sapiens, TE-8.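 Note: growth inhibition of TE-8 cells, measured with a cell viability readout.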
Type: functional, cell-based, Homo sapiens
Description: SANGER: Inhibition of human TE-8 cell growth in a cell viability assay.

SMILES	IC50
Cc1ccc(C(=O)Nc2ccc(CN3CCN(C)CC3)c(C(F)(F)F)c2)cc1C#Cc1cnc2cccnn12 [PONATINIB]	> 512 nM

The compounds below were run on U-87 MG (assay: cells). Details: Homo sapiens, U-87 MG.
Type: functional, cell-based, Homo sapiens, U-87MG ATCC
Description: SANGER: Inhibition of human U-87-MG cell growth in a cell viability assay.

SMILES	IC50
Cc1ccc(C(=O)Nc2ccc(CN3CCN(C)CC3)c(C(F)(F)F)c2)cc1C#Cc1cnc2cccnn12 [PONATINIB]	> 512 nM

Each compound was assayed on CAS-1 (assay: cells). Details: Homo sapiens, CAS-1.
Type: functional, cell-based, Homo sapiens
Description: SANGER: Inhibition of human CAS-1 cell growth in a cell viability assay.

SMILES	IC50
Cc1ccc(C(=O)Nc2ccc(CN3CCN(C)CC3)c(C(F)(F)F)c2)cc1C#Cc1cnc2cccnn12 [PONATINIB]	283 nM

Each compound was assayed on COLO-320-HSR (assay: cells). Details: Homo sapiens, COLO-320-HSR.
Type: functional, cell-based, Homo sapiens
Description: SANGER: Inhibition of human COLO-320-HSR cell growth in a cell viability assay.

SMILES	IC50
Cc1ccc(C(=O)Nc2ccc(CN3CCN(C)CC3)c(C(F)(F)F)c2)cc1C#Cc1cnc2cccnn12 [PONATINIB]	> 512 nM

These compounds were tested on COLO-668 (assay: cells). Details: Homo sapiens, COLO-668.
Type: functional, cell-based, Homo sapiens
Description: SANGER: Inhibition of human COLO-668 cell growth in a cell viability assay.

SMILES	IC50
Cc1ccc(C(=O)Nc2ccc(CN3CCN(C)CC3)c(C(F)(F)F)c2)cc1C#Cc1cnc2cccnn12 [PONATINIB]	> 512 nM
